Test results from patent US6737383B1, “Herbicidal oxadiazolidines” (priority 1999, dated 2004).

What was measured:
sugar beet = assay: Test B pre/postemergence sugar beet; format: in vivo, Beta vulgaris
Method in brief: (§1)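 Herbicidal effect was estimated by eye on a ten-point control scale after plants spent twelve to sixteen days in a greenhouse following soil or foliar treatment. Foliar sprays targeted plants at one to four leaves; all doses were formulated in a non-phytotoxic solvent with surfactant.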

smallflower flatsedge = assay: Test B flood test smallflower flatsedge; format: in vivo, Cyperus difformis
Method in brief: (§2)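 Plants were grown to the 2-leaf stage before treatment with test chemical, then held in a greenhouse for twelve to sixteen days. Injury was visually rated against untreated controls on a 0–10 scale, where 0 is no effect and 10 is complete control.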

wild oat = assay: Test B pre/postemergence wild oat; format: in vivo, Avena fatua
Method in brief: as §1

bedstraw = assay: Test B pre/postemergence bedstraw; format: in vivo, Galium aparine; details: Preemergence, scale of 0 to 10 where 0 is no effect and 10 is complete control
Method in brief: as §1

soybean = assay: Test B pre/postemergence soybean; format: in vivo, Glycine max
Method in brief: as §1

purple nutsedge = assay: Test B pre/postemergence purple nutsedge; format: in vivo, Cyperus rotundus
Method in brief: as §1

duck salad = assay: Test B flood test duck salad; format: in vivo, Heteranthera limosa
Method in brief: as §2

corn = assay: Test B pre/postemergence corn; format: in vivo, Zea mays
Method in brief: as §1

surinam grass = assay: Test B pre/postemergence surinam grass; format: in vivo, Brachiaria decumbens
Method in brief: as §1

wheat = assay: Test B pre/postemergence wheat; format: in vivo, Triticum aestivum
Method in brief: as §1

blackgrass = assay: Test B pre/postemergence blackgrass; format: in vivo, Alopecurus myosuroides
Method in brief: as §1

bamyardgrass = assay: Test B flood test barnyardgrass; format: in vivo, Echinochloa crus-galli
Method in brief: as §2

velvetleaf = assay: Test B pre/postemergence velvetleaf; format: in vivo, Abutilon theophrasti
Method in brief: as §1

cocklebur = assay: Test B pre/postemergence cocklebur; format: in vivo, Xanthium strumarium
Method in brief: as §1

crabgrass = assay: Test B pre/postemergence crabgrass; format: in vivo, Digitaria sanguinalis
Method in brief: as §1

rice = assay: Test B flood test rice; format: in vivo, Oryza sativa
Method in brief: as §2

[1] = Preemergence, Rate 62 g/ha, scale of 0 to 10 where 0 is no effect and 10 is complete control
[2] = Preemergence, Rate 250 g/ha, scale of 0 to 10 where 0 is no effect and 10 is complete control
[3] = Preemergence, Rate 500 g/ha, scale of 0 to 10 where 0 is no effect and 10 is complete control
[4] = Rate 62 g/ha, Postemergence, scale 0 to 10 (0 no effect, 10 complete control)
[5] = Rate 125 g/ha, Postemergence, scale of 0 to 10 where 0 is no effect and 10 is complete control
[6] = Rate 125 g/ha, Preemergence, scale of 0 to 10 where 0 is no effect and 10 is complete control
[7] = Rate 250 g/ha, Postemergence, scale of 0 to 10 where 0 is no effect and 10 is complete control
[8] = Rate 500 g/ha, Postemergence, scale 0 to 10, 0 no effect, 10 complete control
[9] = Rate 62 g/ha, headed Pre-emergence (flood test species), scale 0 to 10 (0 no effect, 10 complete control)
[10] = Rate 125 g/ha, Pre-emergence, flood test species, scale 0 to 10 where 0 is no effect and 10 is complete control
[11] = Rate 250 g/ha, Pre-emergence, flood-test species, scale 0 to 10, 0 is no effect, 10 is complete control
[12] = Rate 500 g/ha, Pre-emergence, flood test species, scale 0 to 10 (0 no effect, 10 complete control)

SMILES: CC1Cc2cccc(-n3c(=O)on(C(=O)N(c4ccc(F)cc4)C(C)C)c3=O)c2O1 (centres unmarked) [Compound 281]
- Sugarbeets plant response rating (sugar beet; [1]): 0
- Sugarbeets plant response rating (sugar beet; [2]): 0
- Plant response rating, Sugarbeets (sugar beet; [3]): 0
- Sugarbeets plant response rating (sugar beet; [4]): 0
- Sugarbeets plant response rating (sugar beet; [5]): 0
- Sugarbeets plant response rating (sugar beet; [6]): 0
- Plant response rating, Sugarbeets (sugar beet; [7]): 0
- Sugarbeets plant response rating (sugar beet; [8]): 4
- S. Flatsedge plant response rating (smallflower flatsedge; [9]): 0
- S. Flatsedge plant response rating (smallflower flatsedge; [10]): 0
- S. Flatsedge plant response rating (smallflower flatsedge; [11]): 0
- S. Flatsedge plant response rating (smallflower flatsedge; [12]): 0
- Wild oats plant response rating (wild oat; [1]): 0
- Wild oats plant response rating (wild oat; [2]): 2
- Plant response rating, Wild oats (wild oat; [3]): 3
- Wild oats plant response rating (wild oat; [4]): 0
- Wild oats plant response rating (wild oat; [5]): 0
- Plant response rating, Wild oats (wild oat; [7]): 0
- Wild oats plant response rating (wild oat; [8]): 0
- Bedstraw plant response rating (bedstraw; Rate 62 g/ha): 0
- Bedstraw plant response rating (bedstraw; Rate 250 g/ha): 6
- Plant response rating, Bedstraw (bedstraw; Rate 500 g/ha): 10
- Bedstraw plant response rating (bedstraw; Rate 125 g/ha): 3
- Soybean plant response rating (soybean; [1]): 0
- Soybean plant response rating (soybean; [2]): 0
- Plant response rating, Soybean (soybean; [3]): 0
- Soybean plant response rating (soybean; [4]): 2
- Soybean plant response rating (soybean; [6]): 0
- Plant response rating, Soybean (soybean; [7]): 3
- Soybean plant response rating (soybean; [8]): 3
- Nutsedge plant response rating (purple nutsedge; [1]): 0
- Nutsedge plant response rating (purple nutsedge; [2]): 0
- Plant response rating, Nutsedge (purple nutsedge; [3]): 0
- Nutsedge plant response rating (purple nutsedge; [4]): 0
- Nutsedge plant response rating (purple nutsedge; [5]): 0
- Nutsedge plant response rating (purple nutsedge; [6]): 0
- Plant response rating, Nutsedge (purple nutsedge; [7]): 0
- Nutsedge plant response rating (purple nutsedge; [8]): 0
- Ducksalad plant response rating (duck salad; [9]): 0
- Ducksalad plant response rating (duck salad; [10]): 0
- Ducksalad plant response rating (duck salad; [11]): 0
- Ducksalad plant response rating (duck salad; [12]): 0
- Corn plant response rating (corn; [1]): 0
- Corn plant response rating (corn; [2]): 0
- Plant response rating, Corn (corn; [3]): 0
- Corn plant response rating (corn; [4]): 0
- Corn plant response rating (corn; [5]): 0
- Corn plant response rating (corn; [6]): 0
- Plant response rating, Corn (corn; [7]): 0
- Corn plant response rating (corn; [8]): 0
- B. signalgrass plant response rating (surinam grass; [1]): 0
- B. signalgrass plant response rating (surinam grass; [2]): 0
- Plant response rating, B. signalgrass (surinam grass; [3]): 0
- B. signalgrass plant response rating (surinam grass; [4]): 0
- B. signalgrass plant response rating (surinam grass; [5]): 0
- B. signalgrass plant response rating (surinam grass; [6]): 0
- Plant response rating, B. signalgrass (surinam grass; [7]): 0
- B. signalgrass plant response rating (surinam grass; [8]): 0
- Wheat plant response rating (wheat; [1]): 0
- Wheat plant response rating (wheat; [2]): 0
- Plant response rating, Wheat (wheat; [3]): 0
- Wheat plant response rating (wheat; [4]): 0
- Wheat plant response rating (wheat; [5]): 0
- Wheat plant response rating (wheat; [6]): 0
- Plant response rating, Wheat (wheat; [7]): 0
- Wheat plant response rating (wheat; [8]): 0
- Blackgrass plant response rating (blackgrass; [1]): 0
- Blackgrass plant response rating (blackgrass; [2]): 2
- Plant response rating, Blackgrass (blackgrass; [3]): 4
- Blackgrass plant response rating (blackgrass; [4]): 0
- Blackgrass plant response rating (blackgrass; [5]): 0
- Blackgrass plant response rating (blackgrass; [6]): 1
- Plant response rating, Blackgrass (blackgrass; [7]): 0
- Blackgrass plant response rating (blackgrass; [8]): 2
- Barnyardgrass plant response rating (bamyardgrass; [9]): 0
- Barnyardgrass plant response rating (bamyardgrass; [10]): 0
- Barnyardgrass plant response rating (bamyardgrass; [11]): 4
- Barnyardgrass plant response rating (bamyardgrass; [12]): 2
- Velvetleaf plant response rating (velvetleaf; [1]): 0
- Velvetleaf plant response rating (velvetleaf; [2]): 0
- Plant response rating, Velvetleaf (velvetleaf; [3]): 0
- Velvetleaf plant response rating (velvetleaf; [4]): 0
- Velvetleaf plant response rating (velvetleaf; [5]): 1
- Velvetleaf plant response rating (velvetleaf; [6]): 0
- Plant response rating, Velvetleaf (velvetleaf; [7]): 1
- Velvetleaf plant response rating (velvetleaf; [8]): 1
- Cocklebur plant response rating (cocklebur; [2]): 0
- Plant response rating, Cocklebur (cocklebur; [3]): 0
- Cocklebur plant response rating (cocklebur; [4]): 0
- Cocklebur plant response rating (cocklebur; [5]): 0
- Plant response rating, Cocklebur (cocklebur; [7]): 0
- Cocklebur plant response rating (cocklebur; [8]): 0
- Crabgrass plant response rating (crabgrass; [1]): 2
- Crabgrass plant response rating (crabgrass; [2]): 10
- Plant response rating, Crabgrass (crabgrass; [3]): 10
- Crabgrass plant response rating (crabgrass; [4]): 0
- Crabgrass plant response rating (crabgrass; [5]): 0
- Crabgrass plant response rating (crabgrass; [6]): 10
- Plant response rating, Crabgrass (crabgrass; [7]): 0
- Crabgrass plant response rating (crabgrass; [8]): 0
- Rice plant response rating (rice; [9]): 0
- Rice plant response rating (rice; [10]): 0
- Rice plant response rating (rice; [11]): 0
- Rice plant response rating (rice; [12]): 0
